According to patent US6239131A, “1,5 Benzodiazepine derivatives” (Zeria Pharmaceutical Co., Ltd., priority 1996, dated 2001):
Where two headings read alike, the source gives them in different places.

Tests used:
[1] = molecular target: T1, CCK-B receptors (Cavia porcellus, UniProt H0VZC5); assay: Measurement of Binding Affinity for CCK-B Receptors; set-up: species or system Hartley-strain guinea pig
T1 construct: Cerebral cortices were removed from Hartley-strain guinea pigs, the cerebral cortices were homogenized; from tissue; host or cells: cerebral cortex of Hartley-strain guinea pigs, crude membrane pellet
T1 sequence (H0VZC5 1-426): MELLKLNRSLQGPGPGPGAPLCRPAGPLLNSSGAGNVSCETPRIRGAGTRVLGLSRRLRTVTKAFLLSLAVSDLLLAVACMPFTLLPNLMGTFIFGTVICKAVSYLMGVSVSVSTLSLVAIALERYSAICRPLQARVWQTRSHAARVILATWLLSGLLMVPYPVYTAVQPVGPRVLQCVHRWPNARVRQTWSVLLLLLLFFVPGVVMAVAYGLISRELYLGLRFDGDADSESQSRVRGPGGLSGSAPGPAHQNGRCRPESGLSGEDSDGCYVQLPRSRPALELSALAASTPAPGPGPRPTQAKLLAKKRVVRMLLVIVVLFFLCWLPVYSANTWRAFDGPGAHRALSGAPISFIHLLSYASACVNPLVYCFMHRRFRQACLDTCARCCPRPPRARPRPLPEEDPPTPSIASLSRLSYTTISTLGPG
Description: Cerebral cortices were removed from Hartley-strain guinea pigs, the cerebral cortices were homogenized in 50 volumes of 50 mM Tris-HCl buffer (pH7.4) and centrifuged at 50000×g for 10 minutes. The Tris-HCl buffer was added to the pellet and recentrifuged as above two times. The final pellet was rehomogenized in 10 mM HEPES buffer (pH 6.5, which hereinafter be abbreviated as "solvent") containing 5 mM MgCl2, 1 mM EGTA, 0.25 mg/ml bacitracin and 130 mM NaCl, and used as the receptor preparation.
Binding assay was measured as follows. Fifty μl of [^3 H]CCK-8 (at the final concentration of 1.0 nM) and 900 μl of the receptor preparation (800 μg protein/tube) were added to 50 μl of either solvent, CCK-8 (1 μM) or a test compound. These ware reacted at 25° C. for 2 hours. After the reaction, the mixture was filtrated through Whatman GF/B filter presoaked in 0.1% BSA. The filter was washed with 3 ml of ice-cold 50 mM Tris-HCl buffer (pH 7.4) four times, immediately after the filtration. The filter was soaked in the ACS-II scintillation cocktail for a day and radioactivity was measured using a liquid scintillation counter. Non-specific binding was defined as the radioactivity in the presence of 1 μM CCK-8. Specific binding was defined as the difference between total binding (used solvent without CCK-8) and non-specific binding. Inhibitor dissociation constant (Ki) of each test compound was determined from the inhibition of specific [^3 H]CCK-8 binding.

[2] = test system: pentagastrin-stimulated acid secretion; assay: Measurement of Inhibition of Pentagastrin-stimulated Acid Secretion; assay type: in vivo, male Sprague-Dawley (SD)-strain rats; settings: intraduodenal, rat, acid output from 1 to 4 hours after administration, pentagastrin 15 μg/kg/hr
Description: Male Sprague-Dawley (SD)-strain rats were used. Each rat was operated to ligate the pylorus, and equip with a duodenal catheter and gastric fistula under a ether anesthesia. After the operation, each rat was placed in a Bollman-type cage and continuously infused pentagastrin (15 μg/kg/hr) through the tail vein. Test compounds were suspended in 0.5% aqueous sodium carboxymethylcellulose (which hereinafter be abbreviated as "vehicle"). Vehicle or test compound was administered through the intraduodenal catheter 1 hour after the beginning of pentagastrin infusion. Acidity of the collected gastric juice was measured by an automatic titillation device. Acid output was determined by multiplying the volume by the acidity of gastric juice. […] [formula]

[3] = molecular target: T2, CCK-A receptors (Cavia porcellus, UniProt Q63931); assay: Measurement of Binding Affinity for CCK-A Receptors; set-up: species or system Hartley-strain guinea pig; settings: inhibition of specific [3H]L-364,718 (0.2 nM) binding; guinea pig pancreas; 25° C., 2 hours; pH 6.5
T2 construct: Pancreases were removed from Hartley-strain guinea pigs, the pancreases were homogenized; from tissue; host or cells: pancreas of Hartley-strain guinea pigs, crude membrane pellet
T2 sequence (Q63931 1-430): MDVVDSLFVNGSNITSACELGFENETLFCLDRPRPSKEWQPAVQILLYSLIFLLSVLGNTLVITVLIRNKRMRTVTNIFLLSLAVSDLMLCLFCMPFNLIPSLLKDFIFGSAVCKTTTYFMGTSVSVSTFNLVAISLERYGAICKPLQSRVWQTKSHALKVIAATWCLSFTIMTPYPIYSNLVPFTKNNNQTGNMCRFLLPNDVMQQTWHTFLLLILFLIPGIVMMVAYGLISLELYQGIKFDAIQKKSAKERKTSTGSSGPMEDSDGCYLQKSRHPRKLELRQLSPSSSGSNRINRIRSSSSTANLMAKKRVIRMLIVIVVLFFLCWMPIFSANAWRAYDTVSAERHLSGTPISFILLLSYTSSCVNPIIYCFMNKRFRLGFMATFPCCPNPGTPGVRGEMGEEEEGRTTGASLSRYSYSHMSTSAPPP
Description: Pancreases were removed from Hartley-strain guinea pigs, the pancreases were homogenized in 40 volumes of 10 mM PIPES buffer (pH 6.5, which hereinafter be abbreviated as "solvent") containing 1 mM EGTA, 30 mM MgCl2, 0.02% bacitracin, 0.02% soybean trypsin inhibitor and 0.3 M sucrose. The homogenate was filtrated through gauze and centrifuged at 50000×g for 10 minutes. Solvent was added to the pellet and recentrifuged as above. The final pellet thus obtained was homogenized in 40 volumes of solvent and used as the receptor preparation.
Binding assay was measured as follows. Fifty μl of [^3 H]L-364, 718 (at the final concentration of 0.2 nM) and 900 μl of the receptor preparation (50 μg protein/tube) were added to 50 μl of solvent, or L-364, 718 (1 μM) or a test compound. This mixture was incubated at 25° C. for 2 hours. After the reaction, the mixture was filtrated through Whatman GF/B filter presoaked in 0.1% BSA (bovine serum albumin). The filter was washed with 3 ml of ice-cold 10 mM PIPES buffer (pH 6.5) three times, immediately after the filtration. The filter was soaked in the ACS-II scintillation cocktail for one day and radioactivity was measured using a liquid scintillation counter. Non-specific binding was defined as the radioactivity in the presence of 1 μM L-364, 718. Specific binding was defined as the difference between total binding (used solvent without L-364, 718) and non-specific binding. lnhibitor dissociation constant (Ki) of each test compound was determined from the inhibition of specific [^3 H]L-364, 718 binding.

[4] = inhibition of specific [3H]CCK-8 (1.0 nM) binding, guinea pig cerebral cortex, 25° C., 2 hours, pH 6.5, read-out: Ki (CCK-B receptors)

Row | Ki [1, 4] [nM] | Ki [3] [nM] | Structure (SMILES) | inhibition in vivo at 3 mg/kg [2] [%] | Ki [1] [nM] | inhibition in vivo at 30 mg/kg [2] [%] | inhibition in vivo at 1 mg/kg ([2]; 1 mg/kg) [%]
1 | 1.13 | 472 | CC(C)(C)C(=O)CN1C(=O)C(NC(=O)Nc2cccc(C(=O)O)c2)CN(c2ccccc2F)c2ccccc21 (stereo not drawn) [Example 101, 3-[3-[1-tert-butylcarbonylmethyl-2-oxo-5-(2-fluorophenyl)-1,3,4,5-tetrahydro-2H-1,5-benzodiazepin-3-yl]ureido]benzoic acid] | 78 | – | – | –
2 | 0.75 | 506 | Cc1ccc2c(c1)N(CC(=O)c1ccccc1C)C(=O)C(NC(=O)Nc1ccc(C)c(C(=O)O)c1)CN2C(=O)CC(C)(C)C (stereo not drawn) [Example 120, 5-[3-[1-(2-toluoylmethyl)-2-oxo-5-(3,3-dimethylbutanoyl)-8-methyl-1,3,4,5-tetrahydro-2H-1,5-benzodiazepin-3-yl]ureido]-2-methylbenzoic acid] | – | – | 88.3 | –
3 | 1.39 | 120 | Cc1ccc2c(c1)N(CC(=O)c1ccccc1C)C(=O)C(NC(=O)Nc1cccc(C(=O)O)c1)CN2C(=O)C1CCCC1 (stereo not drawn) [Example 87, 3-[3-[1-(2-toluoylmethyl)-2-oxo-5-cyclopentylcarbonyl-8-methyl-1,3,4,5-tetrahydro-2H-1,5-benzodiazepin-3-yl]ureido]benzoic acid] | – | – | 80.1 | –

The next lines start with the compound.

Row | Structure (SMILES) | Ki [1, 4] [nM] | Ki [3] [nM] | inhibition in vivo at 3 mg/kg [2] [%] | Ki [1] [nM] | inhibition in vivo at 30 mg/kg [2] [%] | inhibition in vivo at 1 mg/kg ([2]; 1 mg/kg) [%]
4 | CC(C)(C)C(=O)CN1C(=O)C(NC(=O)Nc2cccc(SCC(=O)O)c2)CN(c2ccccc2)c2ccccc21 (stereo not drawn) [Example 33, 3-[3-(1-tert-butylcarbonylmethyl-2-oxo-5-phenyl-1,3,4,5-tetrahydro-2H-1,5-benzodiazepin-3-yl)ureido]phenylthioacetic acid] | 0.14 | 244 | 77.2 | – | – | –
5 | Cc1cccc(NC(=O)N[C@@H]2N=C(c3ccccc3)c3ccccc3N(C)C2=O)c1 [L-365, 260, reference compound] | – | 0.64 | – | 24.6 | 46.5 | –
6 | CC(C)(C)C(=O)CN1C(=O)C(NC(=O)Nc2cccc(C(=O)O)c2)CN(c2ccccc2)c2ccccc21 (single isomer, unassigned; (-)) [Example 70 (-form), (-)-3-[3-(1-tert-butylcarbonylmethyl-2-oxo-5-phenyl-1,3,4,5-tetrahydro-2H-1,5-benzodiazepin-3-yl)ureido]benzoic acid] | 0.36 | 255 | – | – | – | 84.8
